In patent publication US6750228B1, “Aromatic sulfone hydroxamic acid metalloprotease inhibitor” (priority 1997, dated 2004):
Structures can show the parent of a compound that is named as a salt. Where two headings read alike, the source gives them in different places.

How the values were obtained:
Assay in all cases: biochemical
[1] = target: T1, MMP-2 (Homo sapiens, UniProt P08253); conditions: read-out: MMP-2 IC50
T1 construct: made in house; provided by Dr. Gregory Goldberg, Washington University
T1 sequence (P08253 110-660): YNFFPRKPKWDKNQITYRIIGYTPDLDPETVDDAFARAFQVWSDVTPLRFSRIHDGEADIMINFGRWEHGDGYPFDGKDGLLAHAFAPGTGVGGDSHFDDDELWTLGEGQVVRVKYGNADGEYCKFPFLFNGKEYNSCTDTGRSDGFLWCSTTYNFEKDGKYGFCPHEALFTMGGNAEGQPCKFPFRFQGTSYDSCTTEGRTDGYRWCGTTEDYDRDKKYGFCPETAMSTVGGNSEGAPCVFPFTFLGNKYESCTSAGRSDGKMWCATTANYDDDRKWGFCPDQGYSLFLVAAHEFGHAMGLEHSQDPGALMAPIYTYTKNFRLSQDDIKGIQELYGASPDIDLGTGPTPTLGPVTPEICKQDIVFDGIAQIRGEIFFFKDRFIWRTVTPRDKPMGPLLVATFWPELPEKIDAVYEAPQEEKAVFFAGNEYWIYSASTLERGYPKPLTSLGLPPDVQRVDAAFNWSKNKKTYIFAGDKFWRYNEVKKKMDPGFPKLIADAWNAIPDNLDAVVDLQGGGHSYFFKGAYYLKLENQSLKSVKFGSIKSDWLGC
Method in brief: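 APMA- or trypsin-activated human MMPs (MMP-1 from transfected HT-1080 cells, MMP-2 from transfected cells) preincubated with inhibitor in 1% DMSO at room temperature, then 4 μM MCA-Pro-Leu-Gly-Leu-Dpa-Ala-Arg-NH2 added in Tris/NaCl/CaCl2 buffer pH 7.5. IC50 from fluorescence reduction versus inhibitor concentration.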

[2] = target: T2, MMP-13 (Homo sapiens, UniProt P45452); conditions: read-out: MMP-13 IC50
T2 construct: made in house; host or cells: baculovirus / insect cells
Method in brief: (§1)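 Assay buffer 100 mM Tris-HCl, 100 mM NaCl, 10 mM CaCl2, pH 7.5. Activated MMP + inhibitor, 5 min RT; then methoxycoumarin peptide substrate, 4 μM final. Readout fluorescence; IC50 calculated.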

[3] = target: T3, MMP-1 (Homo sapiens, UniProt P03956); conditions: read-out: MMP-1 IC50
T3 construct: made in house; host or cells: transfected HT-1080 cells (provided by Dr. Harold Welgus, Washington University)
T3 sequence (P03956 100-469): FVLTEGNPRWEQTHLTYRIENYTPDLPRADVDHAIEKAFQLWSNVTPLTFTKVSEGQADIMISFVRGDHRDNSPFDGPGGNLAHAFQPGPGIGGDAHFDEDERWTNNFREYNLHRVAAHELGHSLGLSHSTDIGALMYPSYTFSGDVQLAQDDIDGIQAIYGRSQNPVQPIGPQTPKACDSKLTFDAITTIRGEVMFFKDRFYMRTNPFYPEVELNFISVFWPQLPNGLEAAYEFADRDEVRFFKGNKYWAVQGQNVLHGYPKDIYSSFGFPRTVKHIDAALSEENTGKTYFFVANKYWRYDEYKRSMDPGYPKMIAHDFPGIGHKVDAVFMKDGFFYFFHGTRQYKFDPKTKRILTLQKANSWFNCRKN
Method in brief: as §1

[4] = recombinant human MMP-2, MCA peptide substrate 4 μM, pH 7.5, room temperature
[5] = recombinant human MMP-13, MCA peptide substrate 4 μM, pH 7.5, room temperature
[6] = recombinant human MMP-1, MCA peptide substrate 4 μM, pH 7.5, room temperature

Structure (SMILES) | IC50 [1] [nM] | IC50 [2] [nM] | IC50 [3] [nM] | IC50 [1, 4] [nM] | IC50 [2, 5] [nM] | IC50 [3, 6] [nM]
CC1CCCN(C(=O)C2CCN(c3ccc(S(=O)(=O)C4(C(=O)NO)CCOCC4)cc3)CC2)C1 (stereo not drawn) [Example 47] | 6000 | 11.4 | > 10000 | – | – | –
CCN(Cc1ccncc1)C(=O)C1CCN(c2ccc(S(=O)(=O)C3(C(=O)NO)CCOCC3)cc2)CC1 [Example 52] | – | – | – | 1900 | 90 | > 10000
O=C(CNCC(F)(F)F)N1CCC(C(=O)NO)(S(=O)(=O)c2ccc(Oc3ccc(C(F)(F)F)cc3)cc2)CC1 [Example 322] | – | – | – | 0.3 | 0.3 | > 10000
O=C(NO)C1(S(=O)(=O)c2ccc(N3CCC(OCc4ccc(COCCF)cc4)CC3)cc2)CCOCC1 [Example 606] | – | – | – | 77 | 3 | > 10000
O=C(c1ccccc1)N1CCC(C(=O)NO)(S(=O)(=O)c2ccc(Oc3ccc(OC(F)(F)F)cc3)cc2)CC1 [Example 91] | – | – | – | < 0.1 | 0.3 | > 10000
CC1CC(C)CN(C(=O)C2CCN(c3ccc(S(=O)(=O)C4(C(=O)NO)CCN(C(=O)CN5CCN(C)CC5)CC4)cc3)CC2)C1 (stereo not drawn) [Example 288] | – | – | – | > 10000 | 35 | > 10000
O=C(NO)C1(S(=O)(=O)c2ccc(N3CCC(OCc4ccccc4C(F)(F)F)CC3)cc2)CCOCC1 [Example 174] | – | – | – | 800 | 23.5 | > 10000
O=C(NO)C1(S(=O)(=O)c2ccc(N3CCN(S(=O)(=O)c4cccc(C(F)(F)F)c4)CC3)cc2)CCOCC1 [Example 676] | – | – | – | 90 | 7.7 | > 10000
O=C(NO)C1(S(=O)(=O)c2ccc(N3CCC(S(=O)(=O)c4ccccc4)CC3)cc2)CCN(C2CC2)CC1 [Example 409] | – | – | – | 275 | 22.4 | > 10000
O=C(NO)C1(S(=O)(=O)c2ccc(N3CCN(S(=O)(=O)c4cccc5nsnc45)CC3)cc2)CCOCC1 [Example 691] | – | – | – | 130 | 10 | > 10000
N#Cc1cc(F)cc(OC2CCN(c3ccc(S(=O)(=O)C4(C(=O)NO)CCOCC4)cc3)CC2)c1 [Example 474] | – | – | – | 300 | 12.1 | > 10000
CN(C)c1ccc(NC(=S)N2CCC(C(=O)NO)(S(=O)(=O)c3ccc(Oc4ccc(OC(F)(F)F)cc4)cc3)CC2)cc1 [Example 202] | – | – | – | 0.2 | 0.4 | > 10000
CC1CC(C)CN(C(=O)C2CCN(c3ccc(S(=O)(=O)C4(C(=O)NO)CCN(C(=O)CN5CCNCC5)CC4)cc3)CC2)C1 (stereo not drawn) [Example 290] | – | – | – | > 10000 | 50 | > 10000
O=C(NO)C1(S(=O)(=O)c2ccc(N3CCCC(COCc4cccc(C(F)(F)F)c4)C3)cc2)CCOCC1 (stereo not drawn) [Example 507] | – | – | – | 210 | 15.8 | > 10000
O=C(NO)C1(S(=O)(=O)c2ccc(N3CCCC(COCc4ccc(F)cc4)C3)cc2)CCOCC1 (stereo not drawn) [Example 505] | – | – | – | 72 | 14 | > 10000
CCCCCC(=O)C1CCN(c2ccc(S(=O)(=O)C3(C(=O)NO)CCOCC3)cc2)CC1 [Example 755] | – | – | – | 20 | 2.2 | > 10000
O=C(NO)C1(S(=O)(=O)c2ccc(N3CCC(OCc4ccc(COCC(F)(F)C(F)F)cc4)CC3)cc2)CCOCC1 [Example 608] | – | – | – | 250 | 3 | > 10000
CCOc1ccccc1N1CCN(C(=O)C2CCN(c3ccc(S(=O)(=O)C4(C(=O)NO)CCOCC4)cc3)CC2)CC1 [Example 24] | 4500 | 23.5 | > 10000 | – | – | –

Structure (SMILES) | IC50 [1] [nM] | IC50 [2] [nM] | IC50 [3] [nM] | IC50 [1, 4] [nM] | IC50 [2, 5] [nM] | IC50 [3, 6] [nM]
O=C(NO)C1(S(=O)(=O)c2ccc(N3CCCC(COCc4ccccc4)C3)cc2)CCOCC1 (stereo not drawn) [Example 504] | – | – | – | 220 | 6.3 | > 10000
COc1ccc(OC2CCN(c3ccc(S(=O)(=O)C4(C(=O)NO)CCOCC4)cc3)CC2)cc1OC [Example 616] | – | – | – | 3.7 | 4 | > 10000
CC1CC(C)CN(C(=O)C2CCN(c3ccc(S(=O)(=O)C4(C(=O)NO)CCN(C(=O)CNCc5ccccn5)CC4)cc3)CC2)C1 (stereo not drawn) [Example 284] | – | – | – | > 10000 | 130 | > 10000
O=C(Nc1ccccc1)C1CCN(c2ccc(S(=O)(=O)C3(C(=O)NO)CCN(C4CC4)CC3)cc2)CC1 [Example 243, 1-Cyclopropyl-N-hydroxy-4-[[4-[4-[(phenylamino)carbonyl]-1-piperidinyl]phenyl]sulfonyl]-4-piperidinecarboxamide, Monohydrochloride] | – | – | – | 420 | 11.3 | > 10000
COCCN1CCC(C(=O)NO)(S(=O)(=O)c2ccc(N3CCC(OCc4ccc(Cl)cc4)CC3)cc2)CC1 [Example 445] | – | – | – | 1200 | 90 | > 10000
COc1ccccc1C(=O)C1CCN(c2ccc(S(=O)(=O)C3(C(=O)NO)CCOCC3)cc2)CC1 [Example 655] | – | – | – | 1400 | 37.3 | > 10000
O=C(NO)C1(S(=O)(=O)c2ccc(N3CC=C(c4ccccc4)CC3)cc2)CCOCC1 [Example 587] | – | – | – | 1 | 1.8 | > 10000
CC1CC(C)CN(C(=O)C2CCN(c3ccc(S(=O)(=O)C4(C(=O)NO)CCN(C(=O)CNCCCO)CC4)cc3)CC2)C1 (stereo not drawn) [Example 280] | – | – | – | > 10000 | 90 | > 10000
O=C(NO)C1(S(=O)(=O)c2ccc(N3CCC(OCc4ccncc4)CC3)cc2)CCOCC1 [Example 577] | – | – | – | 2200 | 107 | > 10000
Cc1ccc(C(=O)C2CCN(c3ccc(S(=O)(=O)C4(C(=O)NO)CCN(C5CC5)CC4)cc3)CC2)cc1C [Example 383] | – | – | – | 700 | 3 | > 10000
O=C(CNCc1ccncc1)N1CCC(C(=O)NO)(S(=O)(=O)c2ccc(Oc3ccc(C(F)(F)F)cc3)cc2)CC1 [Example 325] | – | – | – | 0.2 | 0.9 | > 10000
O=C(NO)C1(S(=O)(=O)c2ccc(N3CCC(OCc4ccc(OC(F)(F)F)cc4)CC3)cc2)CCOCC1 [Example 175] | – | – | – | 290 | 2.5 | > 10000
O=C(c1ncc[nH]1)N1CCC(C(=O)NO)(S(=O)(=O)c2ccc(Oc3ccc(OC(F)(F)F)cc3)cc2)CC1 [Example 379] | – | – | – | 0.1 | 0.3 | > 10000
Cc1ccc(OC2CCN(c3ccc(S(=O)(=O)C4(C(=O)NO)CCOCC4)cc3)CC2)cc1 [Example 619] | – | – | – | 5.7 | 4.3 | > 10000
COc1cc(OC)cc(OC2CCN(c3ccc(S(=O)(=O)C4(C(=O)NO)CCOCC4)cc3)CC2)c1 [Example 639] | – | – | – | 1.5 | 1.5 | 9400
O=C(NO)C1(S(=O)(=O)c2ccc(OC3CCC(OCc4cccc(Cl)c4)C3)cc2)CCOCC1 (stereo not drawn) [Example 668] | – | – | – | 25.8 | 2 | > 10000
O=C(NO)C1(S(=O)(=O)c2ccc(Oc3ccc(OC(F)(F)F)cc3)cc2)CCN(C(=S)NCCN2CCOCC2)CC1 [Example 199] | – | – | – | < 0.1 | 0.2 | 3000
CC(C)COCc1ccc(COC2CCN(c3ccc(S(=O)(=O)C4(C(=O)NO)CCOCC4)cc3)CC2)cc1 [Example 555] | – | – | – | 220 | 3.7 | > 10000
